Reference: patent US20210253642A1, “CALPAIN MODULATORS AND THERAPEUTIC USES THEREOF BACKGROUND” (Blade Therapeutics, Inc., priority 2018, published 2021)

Columns and labels:
[1] = from CC(C)[C@H](NC(=O)CC(Sc1ccccc1)[C@H](COC(=O)[C@@H](N)Cc1ccc(O[Si](C)(C)C(C)(C)C)cc1)NC(=O)OC(C)(C)C)C(=O)O; amide bond; FDPP; DMF; 6.97 mM; 20.0 °C; 8.0 h
Human Cathepsin B = target: T1, Human Cathepsin B (Homo sapiens, UniProt P07858); assay: Cathepsin continuous fluorescence inhibition assay; type: biochemical; details: Column D; enzyme 25 nM, substrate 1 uM, pH 5.0, 30 minutes pre-incubation with inhibitor
T1 construct: purchased
Procedure: (§1) Cathepsin activity and inhibition thereof was assessed by means of a continuous fluorescence assay. All assays were run in 384 well format and utilized peptide substrates that liberate fluorescence upon protease catalyzed cleavage. FLIPR plate readers (Molecular Devices Inc.) were used to monitor reactions and extract initial rates which were then fit (four parameter logistic function) to obtain IC50 values. All enzymes are human. All enzymes and reagents were obtained commercially and are summarized in Tables 1 and 2 below along with assay conditions.

Human Cathepsin K = target: T2, Human Cathepsin K (Homo sapiens, UniProt P43235); assay: Cathepsin continuous fluorescence inhibition assay; type: biochemical; details: Column E; enzyme 10 nM, substrate 1 uM, pH 5.5, 30 minutes pre-incubation with inhibitor
T2 construct: purchased
T2 sequence (P43235 115-329): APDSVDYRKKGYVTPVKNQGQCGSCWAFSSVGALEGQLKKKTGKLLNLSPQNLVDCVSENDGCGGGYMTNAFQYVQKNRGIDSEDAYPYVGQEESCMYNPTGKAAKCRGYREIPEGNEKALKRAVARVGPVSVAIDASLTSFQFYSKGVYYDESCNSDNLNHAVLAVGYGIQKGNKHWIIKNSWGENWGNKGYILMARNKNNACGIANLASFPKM
Procedure: as §1

Human Cathepsin S = target: T3, Human Cathepsin S (Homo sapiens, UniProt P25774); assay: Cathepsin continuous fluorescence inhibition assay; type: biochemical; details: Column F; enzyme 6 nM, substrate 1 uM, pH 4.5, 30 minutes pre-incubation with inhibitor
T3 construct: purchased
Procedure: as §1

Human Cathepsin L = target: T4, Human Cathepsin L (Homo sapiens, UniProt P07711); assay: Cathepsin continuous fluorescence inhibition assay; type: biochemical; details: Column G; enzyme 0.025 nM, substrate 1 uM, pH 6.0, 30 minutes pre-incubation with inhibitor
T4 construct: purchased
Procedure: as §1

Human Calpain 9/NS1 = target: T5, Human Calpain 9/NS1 (Homo sapiens, UniProt O14815); assay: Calpain continuous fluorescence (FRET) inhibition assay; type: biochemical; details: Column C; SensoLyte 520 FRET substrate, pH 7.5, 25C
T5 sequence (O14815 1-690): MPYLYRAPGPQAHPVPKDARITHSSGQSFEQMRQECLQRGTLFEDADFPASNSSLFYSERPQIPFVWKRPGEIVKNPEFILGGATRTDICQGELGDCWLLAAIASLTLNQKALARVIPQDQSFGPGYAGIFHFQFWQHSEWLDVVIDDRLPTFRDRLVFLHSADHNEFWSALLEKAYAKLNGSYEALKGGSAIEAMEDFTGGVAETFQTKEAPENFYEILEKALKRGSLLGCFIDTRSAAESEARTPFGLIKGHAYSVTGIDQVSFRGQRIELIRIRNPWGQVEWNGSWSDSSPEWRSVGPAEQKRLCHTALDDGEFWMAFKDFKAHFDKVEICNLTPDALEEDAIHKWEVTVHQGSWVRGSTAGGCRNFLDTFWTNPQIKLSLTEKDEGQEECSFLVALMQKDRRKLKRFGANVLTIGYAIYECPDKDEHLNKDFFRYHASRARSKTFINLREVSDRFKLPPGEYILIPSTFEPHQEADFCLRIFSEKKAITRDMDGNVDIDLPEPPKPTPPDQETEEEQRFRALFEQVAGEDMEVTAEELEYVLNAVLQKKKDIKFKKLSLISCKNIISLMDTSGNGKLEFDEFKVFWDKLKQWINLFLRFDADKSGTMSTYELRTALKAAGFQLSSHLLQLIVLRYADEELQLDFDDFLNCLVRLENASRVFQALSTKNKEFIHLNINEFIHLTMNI
T5 sequence (P04632 1-268 partner): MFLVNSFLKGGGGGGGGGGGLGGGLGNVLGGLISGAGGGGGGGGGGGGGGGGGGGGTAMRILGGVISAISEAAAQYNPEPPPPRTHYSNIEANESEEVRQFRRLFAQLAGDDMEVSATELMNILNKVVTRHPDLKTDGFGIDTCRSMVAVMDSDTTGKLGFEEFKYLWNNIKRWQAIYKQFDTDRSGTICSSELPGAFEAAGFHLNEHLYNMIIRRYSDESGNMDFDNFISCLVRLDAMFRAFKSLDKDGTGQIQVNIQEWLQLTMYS
Procedure: (§2) Calpain 1, 2, and 9 activity and inhibition thereof was assessed by means of a continuous fluorescence assay. The SensoLyte 520 Calpain substrate (Anaspec Inc.) was optimized for detecting calpain activity. This substrate contains an internally quenched 5-FAM/QXLTM 520 FRET pair. Calpains 1, 2, and 9 cleave the FRET substrate into two separate fragments resulting in an increase of 5-FAM fluorescence that is proportional to calpain activity
(§3) Assays were typically setup in black 384-well plates using automated liquid handling as follows. Calpain assay base buffer typically contains 50 mM Tris, pH 7.5, 100 mM NaCl and 1 mM DTT. Inhibitors were serially diluted in DMSO and used to setup 2× mixtures with calpains in the aforementioned buffer. After incubation at ambient temperature (25C), the reaction was initiated by adding a 2× mix of the fluorescent peptide substrate and CaCl2) (required for in-situ calpain activation) in the same buffer. Reaction progress curve data were typically collected for 10 min using excitation/emission wavelengths of 490 nm/520 nm on SpectraMax i3x or the FLIPR-Tetra plate readers (Molecular Devices Inc.). Reaction rates were calculated from progress curve slopes typically over 1-5 min. Dose response curves (rate vs. log inhibitor concentration) were typically fit to a 4-parameter logistic function to extract IC50 values.

Human Calpain 2/NS1 = target: T6, Human Calpain 2/NS1 (Homo sapiens, UniProt P17655); assay: as above; type: biochemical; details: Column B; SensoLyte 520 FRET substrate, pH 7.5, 25C
T6 sequence (P17655 1-700): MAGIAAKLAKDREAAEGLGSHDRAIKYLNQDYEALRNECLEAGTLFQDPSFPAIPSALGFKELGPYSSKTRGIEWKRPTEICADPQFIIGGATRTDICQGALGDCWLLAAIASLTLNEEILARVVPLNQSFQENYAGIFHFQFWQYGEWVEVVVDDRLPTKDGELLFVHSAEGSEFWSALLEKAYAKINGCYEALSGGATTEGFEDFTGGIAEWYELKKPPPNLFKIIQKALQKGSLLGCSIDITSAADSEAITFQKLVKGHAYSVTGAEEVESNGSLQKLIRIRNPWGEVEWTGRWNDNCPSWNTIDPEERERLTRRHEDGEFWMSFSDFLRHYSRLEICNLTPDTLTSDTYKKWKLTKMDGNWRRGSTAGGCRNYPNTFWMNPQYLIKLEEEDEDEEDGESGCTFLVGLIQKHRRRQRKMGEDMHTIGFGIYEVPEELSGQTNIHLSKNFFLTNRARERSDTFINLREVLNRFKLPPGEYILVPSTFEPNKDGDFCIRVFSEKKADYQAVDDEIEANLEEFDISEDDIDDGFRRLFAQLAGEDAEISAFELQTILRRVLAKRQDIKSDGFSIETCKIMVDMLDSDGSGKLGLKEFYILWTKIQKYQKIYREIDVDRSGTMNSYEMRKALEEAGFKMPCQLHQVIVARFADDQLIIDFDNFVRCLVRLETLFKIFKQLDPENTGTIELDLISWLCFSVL
T6 sequence (P04632 1-268 partner): T5 sequence (P04632 1-268 partner)
Procedure: as §2, §3

Human Calpain 1/NS1 = target: T7, Human Calpain 1/NS1 (Homo sapiens, UniProt P07384); assay: as above; type: biochemical; details: Column A; SensoLyte 520 FRET substrate, pH 7.5, 25C
T7 sequence (P07384 1-714): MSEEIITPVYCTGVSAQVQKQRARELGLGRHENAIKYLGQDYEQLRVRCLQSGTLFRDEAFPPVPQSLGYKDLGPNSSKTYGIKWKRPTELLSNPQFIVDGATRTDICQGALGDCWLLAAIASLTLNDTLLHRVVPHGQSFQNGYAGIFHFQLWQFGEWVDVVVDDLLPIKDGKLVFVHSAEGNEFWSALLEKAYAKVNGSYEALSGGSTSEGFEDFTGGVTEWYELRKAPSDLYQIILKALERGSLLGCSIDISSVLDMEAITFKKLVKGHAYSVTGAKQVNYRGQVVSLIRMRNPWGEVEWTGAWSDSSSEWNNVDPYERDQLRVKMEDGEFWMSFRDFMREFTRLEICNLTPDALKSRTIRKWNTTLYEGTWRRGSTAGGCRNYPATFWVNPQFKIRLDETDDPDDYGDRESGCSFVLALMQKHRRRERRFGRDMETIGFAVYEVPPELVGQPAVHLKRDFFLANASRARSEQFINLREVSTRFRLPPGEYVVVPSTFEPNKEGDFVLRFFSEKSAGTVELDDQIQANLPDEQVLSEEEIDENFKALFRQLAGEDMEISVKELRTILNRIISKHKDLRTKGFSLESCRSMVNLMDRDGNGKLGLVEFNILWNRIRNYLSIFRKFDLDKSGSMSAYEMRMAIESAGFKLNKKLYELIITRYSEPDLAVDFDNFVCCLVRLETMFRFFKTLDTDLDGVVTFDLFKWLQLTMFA
T7 sequence (P04632 1-268 partner): T5 sequence (P04632 1-268 partner)
Procedure: as §2, §3

T3 sequence (P25774 115-331): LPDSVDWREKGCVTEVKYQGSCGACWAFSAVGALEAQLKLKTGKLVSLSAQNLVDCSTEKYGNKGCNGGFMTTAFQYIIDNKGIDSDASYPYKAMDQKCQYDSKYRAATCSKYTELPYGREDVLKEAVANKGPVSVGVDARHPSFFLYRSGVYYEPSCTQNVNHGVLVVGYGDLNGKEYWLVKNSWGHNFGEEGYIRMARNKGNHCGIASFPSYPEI
T4 sequence (P07711 114-333): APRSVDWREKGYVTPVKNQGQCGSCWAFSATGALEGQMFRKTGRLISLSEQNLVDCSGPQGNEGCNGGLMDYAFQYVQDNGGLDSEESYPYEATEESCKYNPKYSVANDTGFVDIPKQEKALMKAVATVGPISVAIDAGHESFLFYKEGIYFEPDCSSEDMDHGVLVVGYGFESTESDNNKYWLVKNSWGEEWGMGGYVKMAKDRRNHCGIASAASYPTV

Row | Structure (SMILES) | ring closure, yield of all isomers [1] | IC50 (Human Cathepsin B) | IC50 (Human Cathepsin K) | IC50 (Human Cathepsin S) | IC50 (Human Cathepsin L) | IC50 (Human Calpain 9/NS1) | IC50 (Human Calpain 2/NS1) | IC50 (Human Calpain 1/NS1)
1 | CC(C)[C@@H]1NC(=O)CC(Sc2ccccc2)[C@@H](NC(=O)OC(C)(C)C)COC(=O)[C@H](Cc2ccc(O[Si](C)(C)C(C)(C)C)cc2)NC1=O (some centres unmarked) | 39.4% | – | – | – | – | – | – | –
2 | CC(C)[C@@H]1NC(=O)/C=C/[C@@H](NC(=O)OC(C)(C)C)COC(=O)[C@H](C)NC1=O [Compound 15, tert-butyl ((3S,6S,11R,E)-6-isopropyl-3-methyl-2,5,8-trioxo-1-oxa-4,7-diazacyclododec-9-en-11-yl)carbamate] | – | 3 to 10 µM | < 3 µM | < 3 µM | < 3 µM | > 10 µM | > 10 µM | > 10 µM
3 | CCCCCC/C=C\CC(=O)N[C@@H](Cc1ccc(O)cc1)C(=O)N[C@H](C(=O)N[C@@H]1/C=C/C(=O)N[C@@H](C(C)C)C(=O)N[C@@H](C)C(=O)OC1)C(C)C [Compound 16, (Z)—N—((S)-3-(4-hydroxyphenyl)-1-(((S)-1-(((3S,6S,11R,E)-6-isopropyl-3-methyl-2,5,8-trioxo-1-oxa-4,7-diazacyclododec-9-en-11-yl)amino)-3-methyl-1-oxobutan-2-yl)amino)-1-oxopropan-2-yl)dec-3-enamide] | – | < 3 µM | < 3 µM | < 3 µM | < 3 µM | > 10 µM | < 3 µM | < 3 µM
4 | CC(C)[C@@H]1NC(=O)/C=C/[C@@H](NC(=O)[C@@H](NC(=O)[C@H](Cc2ccc(O)cc2)NC(=O)OC(C)(C)C)C(C)C)COC(=O)[C@H](C)NC1=O [Compound 17, Tert-butyl ((S)-3-(4-hydroxyphenyl)-1-(((S)-1-(((3S,6S,11R,E)-6-isopropyl-3-methyl-2,5,8-trioxo-1-oxa-4,7-diazacyclododec-9-en-11-yl)amino)-3-methyl-1-oxobutan-2-yl)amino)-1-oxopropan-2-yl)carbamate] | – | < 3 µM | < 3 µM | < 3 µM | < 3 µM | > 10 µM | < 3 µM | < 3 µM
5 | CCCCCC/C=C\CC(=O)N[C@@H](Cc1ccc(O)cc1)C(=O)N[C@H](C(=O)N[C@@H]1/C=C/C(=O)N[C@@H](C(C)C)C(=O)N[C@@H](Cc2ccc(O)cc2)C(=O)OC1)C(C)C [Compound 18, (Z)—N—((S)-1-(((S)-1-(((3S,6S,11R,E)-3-(4-hydroxybenzyl)-6-isopropyl-2,5,8-trioxo-1-oxa-4,7-diazacyclododec-9-en-11-yl)amino)-3-methyl-1-oxobutan-2-yl)amino)-3-(4-hydroxyphenyl)-1-oxopropan-2-yl)dec-3-enamide] | – | < 3 µM | < 3 µM | < 3 µM | < 3 µM | > 10 µM | < 3 µM | < 3 µM
